Values joined by “and” are separate entries in the source; they are usually repeats but may differ in a detail not shown here. Identical values can stand only once.
Test system: 180 genes in skin explants
Assay: Large scale gene expression profile assay (PCR array) in skin explants
Type: cell-based, human
Settings: eyelid skin explants, 2 mg/cm^2 topical, 24 hours, threshold 30% increase or reduction
Procedure: A large scale gene expression profile assay (by PCR array) was performed of 180 genes in skin explants obtained subsequent to blepharoplasty and subjected to individual treatments with the present invention.
Initially, skin explants were obtained from the eyelids of females between 45 and 55 years of age, three (3) different donors of each age. The explants were split into halves and immediately inserted, in triplicate from each donor, into a culture medium and kept for 24 hours (half 1) and 72 hours (half 2) in a wet environment, at 37° C., 5% CO2. […]
Half (1) was collected and subjected to total RNA extraction. The quality of the extracted RNA was qualitatively (Bioanalyzer microcapillary electrophoresis) and quantitatively (Nanodrop spectrophotometer) assessed. […] The ΔCt values for the GAPDH (glyceraldehyde-3-phosphate dehydrogenase) reference gene and target gene were calculated by subtracting from each other the values for the experimental groups. […] Lastly, a relative quantification of the target genes was determined by using the equation: RQ=2−ΔΔCt. […] The statistical significance was assessed by using the t test followed by the Benjamini-Hochberg method (FDR—false discovery rate), which p-value<0.05 was considered significant. […]

C/C=C/C=C\CC/C=C/C(=O)NCC(C)C [spilanthol sample, spilanthol] was tested, and the “number of genes modulated as compared to the untreated control” value was 163 genes.

In the case of “hyaluronic acid [Hyaluronic Acid sample]”, the “number of genes modulated as compared to the untreated control” value is reported as 162 genes and 146 genes.

From patent US20200315950A1, “COMPOSITION FOR MODULATING THE GENES RESPONSIBLE FOR GENERAL SKIN FUNCTIONS, METHOD FOR MODULATING THE EXPRESSION OF GENES RESPONSIBLE FOR GENERAL SKIN FUNCTIONS, AND USE OF A PLANT EXTRACT” (Natura Cosmeticos S.A., priority 2016, published 2020)
